{
  "source": "PubChem BioAssay AID2060902",
  "about": "(Molecular Pharmacology Branch, DTP, NCI, 2025)",
  "test_system": "485368-065-R3-J5-PDC spheroids with HUVEC/MSC, viability",
  "experiment": "Anticancer human tumor 485368-065-R3-J5-PDC patient-derived pancreatic carcinoma cell line growth inhibition [RAS]",
  "settings": "for IC50: curve of first compound; for viability, T/C: stronger effect = lower value",
  "procedure,_shortened": "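Multi-cell-type spheroids: tumor cells plus HUVEC endothelial cells and mesenchymal stem cells. RAS-pathway inhibitors were combined with targeted agents, each dosed in half-log steps down from clinical Cmax, or from 10 microM when Cmax was unknown.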",
  "key": {"[1]": {"settings": "second compound 0.000949 µM, first compound 0.0316 µM"}, "[2]": {"settings": "second compound 0.000949 µM, first compound 0.1 µM"}, "[3]": {"settings": "second compound 0.000949 µM, first compound 0.316 µM"}, "[4]": {"settings": "second compound 0.000949 µM, first compound 1 µM"}, "[5]": {"settings": "second compound 0.000949 µM, first compound 3.16 µM"}, "[6]": {"settings": "second compound 0.000949 µM, first compound 10 µM"}, "[7]": {"settings": "second compound 0.003 µM, first compound 0.0316 µM"}, "[8]": {"settings": "second compound 0.003 µM, first compound 0.1 µM"}, "[9]": {"settings": "second compound 0.003 µM, first compound 0.316 µM"}, "[10]": {"settings": "second compound 0.003 µM, first compound 1 µM"}, "[11]": {"settings": "second compound 0.003 µM, first compound 3.16 µM"}, "[12]": {"settings": "second compound 0.003 µM, first compound 10 µM"}, "[13]": {"settings": "second compound 0.00949 µM, first compound 0.0316 µM"}, "[14]": {"settings": "second compound 0.00949 µM, first compound 0.1 µM"}, "[15]": {"settings": "second compound 0.00949 µM, first compound 0.316 µM"}, "[16]": {"settings": "second compound 0.00949 µM, first compound 1 µM"}, "[17]": {"settings": "second compound 0.00949 µM, first compound 3.16 µM"}, "[18]": {"settings": "second compound 0.00949 µM, first compound 10 µM"}, "[19]": {"settings": "second compound 0.03 µM, first compound 0.0316 µM"}, "[20]": {"settings": "second compound 0.03 µM, first compound 0.1 µM"}, "[21]": {"settings": "second compound 0.03 µM, first compound 0.316 µM"}, "[22]": {"settings": "second compound 0.03 µM, first compound 1 µM"}, "[23]": {"settings": "second compound 0.03 µM, first compound 3.16 µM"}, "[24]": {"settings": "second compound 0.03 µM, first compound 10 µM"}, "[25]": {"settings": "second compound 0.0949 µM, first compound 0.0316 µM"}, "[26]": {"settings": "second compound 0.0949 µM, first compound 0.1 µM"}, "[27]": {"settings": "second compound 0.0949 µM, first compound 0.316 µM"}, "[28]": {"settings": "second compound 0.0949 µM, first compound 1 µM"}, "[29]": {"settings": "second compound 0.0949 µM, first compound 3.16 µM"}, "[30]": {"settings": "second compound 0.0949 µM, first compound 10 µM"}, "[31]": {"settings": "second compound 0.3 µM, first compound 0.0316 µM"}, "[32]": {"settings": "second compound 0.3 µM, first compound 0.1 µM"}, "[33]": {"settings": "second compound 0.3 µM, first compound 0.316 µM"}, "[34]": {"settings": "second compound 0.3 µM, first compound 1 µM"}, "[35]": {"settings": "second compound 0.3 µM, first compound 3.16 µM"}, "[36]": {"settings": "second compound 0.3 µM, first compound 10 µM"}},
  "data": [
    {"compound": "CC1(O)CCCC1n1c(=O)c(C(F)F)cc2cnc(NC3CCN(S(C)(=O)=O)CC3)nc21", "note": "(centres undefined) + CCn1c(-c2cccnc2C(C)OC)c2c3cc(ccc31)N1CCOC(CC(NC(=O)C(C(C)C)N(C)C(=O)C3(F)CCN(C(=O)C#CC(C)(C)N(C)C)CC3)C(=O)N3CCCC(N3)C(=O)OCC(C)(C)C2)C1;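 note: spheroids exposed to agents for seven days before readout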", "values": [
      {"measurement": "IC50", "setting": "second compound 0.000949 µM", "value": 279, "unit": "nM"},
      {"measurement": "IC50", "setting": "second compound 0.003 µM", "value": 722, "unit": "nM"},
      {"measurement": "IC50", "setting": "second compound 0.00949 µM", "value": 580, "unit": "nM"},
      {"measurement": "IC50", "setting": "second compound 0.03 µM", "value": 254, "unit": "nM"},
      {"measurement": "IC50", "setting": "second compound 0.0949 µM", "value": 636, "unit": "nM"},
      {"measurement": "IC50", "setting": "second compound 0.3 µM", "value": 656, "unit": "nM"},
      {"measurement": "viability, T/C", "setting": "[1]", "value": 106, "unit": "%"},
      {"measurement": "viability, T/C", "setting": "[2]", "value": 79.2, "unit": "%"},
      {"measurement": "viability, T/C", "setting": "[3]", "value": 44.9, "unit": "%"},
      {"measurement": "viability, T/C", "setting": "[4]", "value": 40.2, "unit": "%"},
      {"measurement": "viability, T/C", "setting": "[5]", "value": 46, "unit": "%"},
      {"measurement": "viability, T/C", "setting": "[6]", "value": 24.5, "unit": "%"},
      {"measurement": "viability, T/C", "setting": "[7]", "value": 91.4, "unit": "%"},
      {"measurement": "viability, T/C", "setting": "[8]", "value": 82.9, "unit": "%"},
      {"measurement": "viability, T/C", "setting": "[9]", "value": 50.4, "unit": "%"},
      {"measurement": "viability, T/C", "setting": "[10]", "value": 41.9, "unit": "%"},
      {"measurement": "viability, T/C", "setting": "[11]", "value": 48.5, "unit": "%"},
      {"measurement": "viability, T/C", "setting": "[12]", "value": 21.3, "unit": "%"},
      {"measurement": "viability, T/C", "setting": "[13]", "value": 92.8, "unit": "%"},
      {"measurement": "viability, T/C", "setting": "[14]", "value": 77.1, "unit": "%"},
      {"measurement": "viability, T/C", "setting": "[15]", "value": 42.9, "unit": "%"},
      {"measurement": "viability, T/C", "setting": "[16]", "value": 48.2, "unit": "%"},
      {"measurement": "viability, T/C", "setting": "[17]", "value": 44.8, "unit": "%"},
      {"measurement": "viability, T/C", "setting": "[18]", "value": 18, "unit": "%"},
      {"measurement": "viability, T/C", "setting": "[19]", "value": 97.6, "unit": "%"},
      {"measurement": "viability, T/C", "setting": "[20]", "value": 88.6, "unit": "%"},
      {"measurement": "viability, T/C", "setting": "[21]", "value": 40.8, "unit": "%"},
      {"measurement": "viability, T/C", "setting": "[22]", "value": 41.2, "unit": "%"},
      {"measurement": "viability, T/C", "setting": "[23]", "value": 49.2, "unit": "%"},
      {"measurement": "viability, T/C", "setting": "[24]", "value": 17.4, "unit": "%"},
      {"measurement": "viability, T/C", "setting": "[25]", "value": 96, "unit": "%"},
      {"measurement": "viability, T/C", "setting": "[26]", "value": 80, "unit": "%"},
      {"measurement": "viability, T/C", "setting": "[27]", "value": 48.5, "unit": "%"},
      {"measurement": "viability, T/C", "setting": "[28]", "value": 41.2, "unit": "%"},
      {"measurement": "viability, T/C", "setting": "[29]", "value": 49.8, "unit": "%"},
      {"measurement": "viability, T/C", "setting": "[30]", "value": 17.4, "unit": "%"},
      {"measurement": "viability, T/C", "setting": "[31]", "value": 105, "unit": "%"},
      {"measurement": "viability, T/C", "setting": "[32]", "value": 86.1, "unit": "%"},
      {"measurement": "viability, T/C", "setting": "[33]", "value": 47, "unit": "%"},
      {"measurement": "viability, T/C", "setting": "[34]", "value": 44.8, "unit": "%"},
      {"measurement": "viability, T/C", "setting": "[35]", "value": 48.5, "unit": "%"},
      {"measurement": "viability, T/C", "setting": "[36]", "value": 13.1, "unit": "%"}
    ]},
    {"compound": "CCC(CC)c1cc(NC2CCC(N)C2)n2nccc2n1", "note": "(centres undefined) + CCn1c(-c2cccnc2C(C)OC)c2c3cc(ccc31)N1CCOC(CC(NC(=O)C(C(C)C)N(C)C(=O)C3(F)CCN(C(=O)C#CC(C)(C)N(C)C)CC3)C(=O)N3CCCC(N3)C(=O)OCC(C)(C)C2)C1", "values": [
      {"measurement": "IC50", "setting": "second compound 0.000949 µM", "value": 1980, "unit": "nM"},
      {"measurement": "IC50", "setting": "second compound 0.003 µM", "value": 2010, "unit": "nM"},
      {"measurement": "IC50", "setting": "second compound 0.00949 µM", "value": 1990, "unit": "nM"},
      {"measurement": "IC50", "setting": "second compound 0.03 µM", "value": 2030, "unit": "nM"},
      {"measurement": "IC50", "setting": "second compound 0.0949 µM", "value": 2040, "unit": "nM"},
      {"measurement": "IC50", "setting": "second compound 0.3 µM", "value": 2000, "unit": "nM"},
      {"measurement": "viability, T/C", "setting": "[1]", "value": 104, "unit": "%"},
      {"measurement": "viability, T/C", "setting": "[2]", "value": 97.3, "unit": "%"},
      {"measurement": "viability, T/C", "setting": "[3]", "value": 116, "unit": "%"},
      {"measurement": "viability, T/C", "setting": "[4]", "value": 133, "unit": "%"},
      {"measurement": "viability, T/C", "setting": "[5]", "value": 5.59, "unit": "%"},
      {"measurement": "viability, T/C", "setting": "[6]", "value": 9.62, "unit": "%"},
      {"measurement": "viability, T/C", "setting": "[7]", "value": 102, "unit": "%"},
      {"measurement": "viability, T/C", "setting": "[8]", "value": 109, "unit": "%"},
      {"measurement": "viability, T/C", "setting": "[9]", "value": 116, "unit": "%"},
      {"measurement": "viability, T/C", "setting": "[10]", "value": 133, "unit": "%"},
      {"measurement": "viability, T/C", "setting": "[11]", "value": 5.13, "unit": "%"},
      {"measurement": "viability, T/C", "setting": "[12]", "value": 10.4, "unit": "%"},
      {"measurement": "viability, T/C", "setting": "[13]", "value": 95.7, "unit": "%"},
      {"measurement": "viability, T/C", "setting": "[14]", "value": 112, "unit": "%"},
      {"measurement": "viability, T/C", "setting": "[15]", "value": 101, "unit": "%"},
      {"measurement": "viability, T/C", "setting": "[16]", "value": 138, "unit": "%"},
      {"measurement": "viability, T/C", "setting": "[17]", "value": 4.94, "unit": "%"},
      {"measurement": "viability, T/C", "setting": "[18]", "value": 11.5, "unit": "%"},
      {"measurement": "viability, T/C", "setting": "[19]", "value": 104, "unit": "%"},
      {"measurement": "viability, T/C", "setting": "[20]", "value": 103, "unit": "%"},
      {"measurement": "viability, T/C", "setting": "[21]", "value": 112, "unit": "%"},
      {"measurement": "viability, T/C", "setting": "[22]", "value": 152, "unit": "%"},
      {"measurement": "viability, T/C", "setting": "[23]", "value": 4.96, "unit": "%"},
      {"measurement": "viability, T/C", "setting": "[24]", "value": 11, "unit": "%"},
      {"measurement": "viability, T/C", "setting": "[25]", "value": 105, "unit": "%"},
      {"measurement": "viability, T/C", "setting": "[26]", "value": 108, "unit": "%"},
      {"measurement": "viability, T/C", "setting": "[27]", "value": 114, "unit": "%"},
      {"measurement": "viability, T/C", "setting": "[28]", "value": 149, "unit": "%"},
      {"measurement": "viability, T/C", "setting": "[29]", "value": 5.12, "unit": "%"},
      {"measurement": "viability, T/C", "setting": "[30]", "value": 10.1, "unit": "%"},
      {"measurement": "viability, T/C", "setting": "[31]", "value": 108, "unit": "%"},
      {"measurement": "viability, T/C", "setting": "[32]", "value": 111, "unit": "%"},
      {"measurement": "viability, T/C", "setting": "[33]", "value": 120, "unit": "%"},
      {"measurement": "viability, T/C", "setting": "[34]", "value": 123, "unit": "%"},
      {"measurement": "viability, T/C", "setting": "[35]", "value": 4.15, "unit": "%"},
      {"measurement": "viability, T/C", "setting": "[36]", "value": 9.84, "unit": "%"}
    ]}
  ]
}
